# Test results from patent publication US9284307B2, “Macrocyclic serine protease inhibitors” (Idenix Pharmaceuticals LLC, priority 2009, dated 2016).
# Biological target: T1, HCV NS3-NS4A protease 4a (Hepatitis C virus genotype 4a, UniProt O39929)
# T1 construct: using 2-3 nM HCV NS3-NS4A protease, which was produced according to the method of Taremi et al; made in house
# Experiment: HCV protease assay (HiLyte Fluor TR/QXL 610 FRET peptide), genotype 4a
# Type: biochemical
# Details: 2-3 nM protease, 60 min at 30° C., read-out: IC50 Against HS3/4A 4a
# Method: Measurement of the inhibitory effect of compounds on HCV protease activity was performed using the HiLyte Fluor™ TR/QXL™ 610 FRET peptide from AnaSpec, Inc. (San Jose, Calif.) under conditions developed in-house using 2-3 nM HCV NS3-NS4A protease, which was produced according to the method of Taremi et al. (Protein Science, 1998, 7, 2143-2149). The compounds were tested at a variety of concentrations in assay buffer containing a final DMSO concentration of 5%. Reactions were allowed to proceed for 60 min at 30° C. and fluorescence measurements were recorded with a PerkinElmer Victor^3 V 1420 Multilabel Counter. The IC50 values were determined from the percent inhibition versus concentration data using a sigmoidal non-linear regression analysis based on four parameters with XLfit 4.1 software.
# T1 sequence (O39929 1027-1208): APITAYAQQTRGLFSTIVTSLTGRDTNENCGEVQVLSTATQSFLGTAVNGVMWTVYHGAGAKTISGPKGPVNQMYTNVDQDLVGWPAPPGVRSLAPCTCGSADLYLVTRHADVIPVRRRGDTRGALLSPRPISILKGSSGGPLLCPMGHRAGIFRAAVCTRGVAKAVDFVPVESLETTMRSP
compound,measurement,value
COc1ccc2c(O[C@H]3CC[C@H]4C(=O)N(C)CCCC/C=C\[C@@H]5C[C@@]5(C(=O)NS(=O)(=O)C5(C)CC5)NC(=O)[C@@H]4C3)cc(-c3nc(C(F)(F)F)cs3)nc2c1C [Compound 51],IC50,< 1 µM
